Data set [1] has as its system PPAR target genes (ACOX1, ANGPTL4, CPT2, PDK4). Kind of data set: Primary human hepatocyte mRNA expression. The format is cell-based. The following applies: primary human hepatocytes HH1–HH3, 24 h; for expression of PPAR target genes (overall): MEHP/MiNP 0.1–30 μM.
In data set [2] the test system is hCAR variants and hPXR. The following applies: transactivation assays, ref [47]; cited from earlier work.
Data set [3] deals with T1, hCAR2 (Homo sapiens, UniProt Q14994).
T1 sequence (Q14994 1-352): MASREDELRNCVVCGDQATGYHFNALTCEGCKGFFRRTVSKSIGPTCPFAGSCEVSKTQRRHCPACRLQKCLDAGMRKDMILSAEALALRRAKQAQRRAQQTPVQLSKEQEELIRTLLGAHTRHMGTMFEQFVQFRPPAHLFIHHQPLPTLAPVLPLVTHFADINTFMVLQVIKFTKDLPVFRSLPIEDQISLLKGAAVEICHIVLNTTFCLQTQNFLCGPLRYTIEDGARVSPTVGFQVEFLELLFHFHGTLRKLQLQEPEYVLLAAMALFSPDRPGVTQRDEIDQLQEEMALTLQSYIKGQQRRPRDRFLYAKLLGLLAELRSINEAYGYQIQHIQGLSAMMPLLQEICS
T1 sequence (P19793 1-462 partner): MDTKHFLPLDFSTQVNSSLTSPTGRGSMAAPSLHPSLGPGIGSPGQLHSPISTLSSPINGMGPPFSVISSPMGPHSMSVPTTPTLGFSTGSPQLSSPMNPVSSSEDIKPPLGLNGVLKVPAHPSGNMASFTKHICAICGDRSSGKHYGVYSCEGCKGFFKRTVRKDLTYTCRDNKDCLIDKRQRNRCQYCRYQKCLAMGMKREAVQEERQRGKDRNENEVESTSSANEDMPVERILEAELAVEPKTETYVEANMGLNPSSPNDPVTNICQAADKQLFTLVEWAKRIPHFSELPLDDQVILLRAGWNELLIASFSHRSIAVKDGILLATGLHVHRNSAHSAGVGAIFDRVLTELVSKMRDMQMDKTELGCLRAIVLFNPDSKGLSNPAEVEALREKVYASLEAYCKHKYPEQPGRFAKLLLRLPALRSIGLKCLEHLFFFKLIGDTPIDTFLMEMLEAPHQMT
The experiment in a line: Transactivation luciferase reporter assay in COS-1 cells, CMV2-CAR2. Type of data set: cell-based. The following applies: for activation of hCAR2 (screen): COS-1, 2B6-XREM-PBREM reporter, Figure 2. Background: A reporter such as luciferase makes a cellular process visible.

The target of data set [4] is T2, hCAR1 (Homo sapiens, UniProt Q14994).
T2 sequence (Q14994 1-348 isoform Q14994-2): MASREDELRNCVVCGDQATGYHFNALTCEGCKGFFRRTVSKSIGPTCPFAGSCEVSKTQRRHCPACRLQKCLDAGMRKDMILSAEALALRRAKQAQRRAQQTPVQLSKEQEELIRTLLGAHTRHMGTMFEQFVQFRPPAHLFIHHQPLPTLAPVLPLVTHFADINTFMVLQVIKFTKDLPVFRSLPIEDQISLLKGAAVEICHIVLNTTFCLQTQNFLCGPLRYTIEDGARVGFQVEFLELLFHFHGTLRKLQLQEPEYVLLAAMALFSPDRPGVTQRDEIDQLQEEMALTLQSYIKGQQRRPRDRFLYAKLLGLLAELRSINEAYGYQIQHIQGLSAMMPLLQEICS
The experiment in a line: Transactivation luciferase reporter assay in COS-1 cells, CMV2-CAR1. As to conditions: COS-1, 2B6-XREM-PBREM reporter, ANDRO 10 μM, 24 h, Figure 2. Type of data set: cell-based.

Data set [5] addresses T3, hCAR3 (Homo sapiens, UniProt Q14994, DEL233-236).
T3 sequence (Q14994 with tags, fused parts or gaps isoform Q14994-8 DEL233-236): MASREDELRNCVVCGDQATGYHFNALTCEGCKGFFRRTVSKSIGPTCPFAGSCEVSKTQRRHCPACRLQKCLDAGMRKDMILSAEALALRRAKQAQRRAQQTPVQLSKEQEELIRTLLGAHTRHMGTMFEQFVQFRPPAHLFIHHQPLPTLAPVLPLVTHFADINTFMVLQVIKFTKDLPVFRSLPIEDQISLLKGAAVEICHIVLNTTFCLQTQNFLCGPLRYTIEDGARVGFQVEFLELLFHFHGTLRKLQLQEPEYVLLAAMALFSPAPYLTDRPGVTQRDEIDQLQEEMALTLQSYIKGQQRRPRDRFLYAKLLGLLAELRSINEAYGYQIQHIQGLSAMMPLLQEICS
T3 sequence (P19793 1-462 partner): T1 sequence (P19793 1-462 partner)
Kind of data set: Transactivation luciferase reporter assay in COS-1 cells, CMV2-CAR3. Type of data set: cell-based. The following applies: COS-1, 2B6-XREM-PBREM reporter, 24 h, Figure 2.

Data set [6] concerns hPPARα, hPPARβ/∂, and hPPARγ. Kind of data set: PPRE reporter transactivation assays, statements on the hPPARs collectively. The format is cell-based, human.
The test system of data set [7] is Wild-type mice. The following applies: PPARα knockout mice not protected, ref [59]; cited from earlier work.
The subject of data set [8] is rodent PPAR and CAR target genes. As to conditions: in vivo rodent studies, ref [29],[30]; cited from earlier work.
The subject of data set [9] is male rodents. The following applies: varying treatment modalities, ref [5]–[7]; cited from earlier work.
Data set [10] concerns female rodents. As to conditions: ref [8]; cited from earlier work.
In data set [11] the target is T4, hPXR (Homo sapiens, UniProt O75469).
T4 sequence (O75469 1-434): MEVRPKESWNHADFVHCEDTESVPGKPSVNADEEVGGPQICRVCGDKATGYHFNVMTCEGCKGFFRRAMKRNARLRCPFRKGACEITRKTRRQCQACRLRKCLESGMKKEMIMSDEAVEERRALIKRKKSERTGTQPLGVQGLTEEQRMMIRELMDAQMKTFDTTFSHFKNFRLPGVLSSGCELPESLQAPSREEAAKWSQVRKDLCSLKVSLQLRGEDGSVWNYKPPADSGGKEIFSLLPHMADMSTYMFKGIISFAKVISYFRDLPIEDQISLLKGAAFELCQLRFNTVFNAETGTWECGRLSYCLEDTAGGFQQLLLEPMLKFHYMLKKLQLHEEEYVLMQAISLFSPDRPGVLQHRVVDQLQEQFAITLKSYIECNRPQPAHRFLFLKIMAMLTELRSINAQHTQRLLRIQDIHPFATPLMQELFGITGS
T4 sequence (P19793 1-462 partner): T1 sequence (P19793 1-462 partner)
Kind of data set: Transactivation luciferase reporter assay in COS-1 cells, CMV2-PXR. The following applies: for activation of hPXR (screen): COS-1, 2B6-XREM-PBREM reporter, Figure 2.

Data set [12] concerns the target T5, hPPARα (Homo sapiens, UniProt Q07869).
T5 sequence (Q07869 1-468): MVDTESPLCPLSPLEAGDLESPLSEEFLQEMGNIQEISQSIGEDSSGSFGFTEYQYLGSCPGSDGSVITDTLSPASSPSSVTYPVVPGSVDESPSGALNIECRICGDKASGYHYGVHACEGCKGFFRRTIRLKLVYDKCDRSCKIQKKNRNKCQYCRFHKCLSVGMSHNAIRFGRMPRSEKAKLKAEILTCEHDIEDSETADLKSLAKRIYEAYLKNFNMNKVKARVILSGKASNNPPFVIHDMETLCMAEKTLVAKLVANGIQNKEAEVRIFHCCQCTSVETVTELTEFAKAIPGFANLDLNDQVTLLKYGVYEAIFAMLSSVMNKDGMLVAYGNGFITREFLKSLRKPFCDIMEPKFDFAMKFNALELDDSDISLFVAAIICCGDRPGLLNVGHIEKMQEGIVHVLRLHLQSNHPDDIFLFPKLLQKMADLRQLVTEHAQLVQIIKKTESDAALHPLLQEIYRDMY
The format is cell-based. The following applies: COS-1, 24 h, Figure 4A.

For data set [13], the target named is hCAR2 (Homo sapiens, UniProt Q14994). The experiment in a line: Mammalian two-hybrid assay, CAR LBD with SRC1, COS-1 cells. Type of data set: cell-based. The following applies: COS-1, 24 h, Figure 5.
Data set [14] relates to 3T3L1 cells. As to conditions: cited from earlier work.
Data set [15] deals with CYP2B6. The experiment in a line: Primary human hepatocyte mRNA expression. The following applies: donor HH3, 30 μM, 24 h.
Data set [16] has as its target hPXR (Homo sapiens, UniProt O75469). Kind of data set: Mammalian two-hybrid assay, PXR LBD with SRC1, COS-1 cells. The following applies: COS-1, 24 h, Figure 5.

“Also recorded” adds a separate entry of the source. Where two headings read alike, the source gives them in different places.

With `Cc1c(C)c2c(c(C)c1O)CCC(C)(COc1ccc(CC3SC(=O)NC3=O)cc1)O2` (stereo not shown) [TG, troglitazone], in data set [1] (50 μM WY14643, 30 μM TG), the “ANGPTL4 mRNA expression” value was “inducing only ANG and CPT in HH3”; the “CPT2 mRNA expression” value was “inducing only ANG and CPT in HH3”. In data set [1], the “expression of PPAR target genes (overall)” value is recorded as “weak inducer of PPAR target genes”. Also, the “activation of hCAR variants and hPXR” value in data set [2] is “activates hCAR variants and hPXR”.
As for `CCCCC(CC)COC(=O)c1ccccc1C(=O)OCC(CC)CCCC` (stereo not shown) [DEHP, di(2-ethylhexyl) phthalate], the figures for the EC50 in data set [3] and in data set [11] were 0.1 µM and 3.5 µM, respectively. Moreover, the “activation of hCAR2 (screen)” value in data set [3] (24 h) is “activated hCAR2 and hPXR”. Further, the “max fold activation (hCAR2)” value in [3] (COS-1, CYP2B6-PBREM-XREM reporter, 24 h, Figure 6/Table 4) was 7.1 fold. In addition, the “activation of hCAR1 (screen)” value in data set [4] is on record as “only minimal activity; also recorded: little or no activation of hCAR1”. Also, in data set [5], the “activation of hCAR3 (screen)” value was “only minimal activity”. In addition, the “activation of the PPRE reporter by hPPARs (screen)” value in data set [6] (COS-1, 24 h, Figure 3, effects only at highest test dose (100 μM)) is “neither DEHP nor DiNP activated the hPPARs”. Besides, the “activation of the hPPARs (dose–response, higher doses)” value in data set [6] (hPPARα and hPPARγ, higher doses than screening, data not shown) was “neither of the diphthalates activated the hPPARs”. Besides, in data set [7], the “phenotype on control diet or high fat diet” value was “exhibited a lean phenotype”. Moreover, the “activation of rodent PPAR and CAR target genes” value in data set [8] is “activation of rodent PPAR and CAR target genes”. In addition, the “testosterone levels, reproductive organ weights, sperm counts, sperm motility” value in data set [9] was “decrease testosterone levels, reproductive organ weights, sperm counts, and sperm motility”. For the same compound, the “estradiol levels and estrus cycle” value in data set [10] was “Decreased estradiol levels and estrus cycle disruptions”. In data set [11] (24 h), the “activation of hPXR (screen)” value was “activated hCAR2 and hPXR”. Also, the “max fold activation (hPXR)” value in data set [11] (COS-1, 3A4-XREM reporter, 24 h, Figure 6/Table 4) is given as 13.7 fold.
With `CCCCC(CC)COC(=O)c1ccccc1C(=O)O` (stereo not shown) [MEHP, mono-(2-ethylhexyl)phthalate], in data set [3] (24 h), the “activation of hCAR2 (screen)” value is “significant activation of hCAR2”. In addition, the “rank order potency across receptors” value in [3] (transactivation dose–response, Figure 4B) is reported as “hCAR2 > hPXR > hPPARγ ≥ PPARβ/∂”. For the same compound, in data set [4], the “activation of hCAR1 (screen)” value was “slight activation of hCAR1 and hCAR3 at the highest doses; also recorded: little or no activation of hCAR1”. The “activation of hCAR3 (screen)” value in [5] was “slight activation of hCAR1 and hCAR3 at the highest doses”. Further, the “activation of hPPARα (dose–response)” value in data set [12] was “very little activation of hPPARα”. Also, in data set [13], the “hCAR interaction with SRC1 / activation (mammalian two-hybrid)” value is “interacted with SRC1 in a dose-dependent manner”. In data set [1], the “expression of PPAR target genes (overall)” value is reported as “Neither MEHP nor MiNP induced expression of any PPAR target genes; also recorded: no activation of PPAR target genes”. The “expression of PPARγ target genes involved in adipocyte differentiation” value in data set [14] (3T3L1 cells, ref [42]) is recorded as “induced expression of PPARγ target genes”. In addition, the “cellular lipid and triglyceride content” value in data set [14] (3T3L1 preadipocytes, ref [41],[42]) is “increased cellular lipid and triglyceride content”. For the same compound, the “CYP2B6 mRNA expression” value in data set [15] was “increased expression of CYP2B6”. The “hPXR interaction with SRC1 / activation (mammalian two-hybrid)” value in data set [16] is reported as “interacted with SRC1 in a dose-dependent manner”. Moreover, the “activation of hPXR (screen)” value in data set [11] (24 h) was “moderate activation of hPXR”. Besides, the EC50 (commonly the concentration giving half of the maximal effect) in [11] (read-out: EC50 (hPXR), COS-1, 3A4-XREM reporter, 24 h, Figure 6/Table 4) worked out at 27 µM.
